Test results published in PMC8686763, “Pre-Steady-State Kinetics of the SARS-CoV-2 Main Protease as a Powerful Tool for Antiviral Drug Discovery” (Frontiers in Pharmacology, 2021).

Columns and labels:
[1] = biological target: T1, C145A M^pro (Severe acute respiratory syndrome coronavirus 2, UniProt P0DTD1, C3408A); type: binding, SARS-CoV-2
[2] = biological target: T1, C145A M^pro; type: binding, SARS-CoV-2; remark: listed apart in the source

Q: What does the source list for `COc1cccc2[nH]c(C(=O)N[C@@H](CC(C)C)C(=O)N[C@@H](C[C@@H]3CCNC3=O)C(=O)CO)cc12` [PF-00835231]?
A: K 1 (= k 1/k −1) [1]: 0.30 ± 0.02 M⁻¹; K 2 (= k 2/k −2) [1]: 0.35 ± 0.09; formation of the initial complex (k 1) faster for C145A M^pro than WT [1]: approximately 20 fold; k 1 [1]: (6.6 ± 0.2)×10^6 M^−1×s^−1; k 2 [1]: 1.0 ± 0.2 s⁻¹; k -1 [1]: 22 ± 0.2 s⁻¹; k -2 [1]: 2.8 ± 0.2 s⁻¹; change in Tm [2]: ~2.2 °C
